For two compounds, MIC results are on record in PMC11016868 (Computational and Structural Biotechnology Journal, 2024).

In brackets after ≈: the same amount, converted by molar mass.

The test has as its system M. marinum (NTUH-M6885). Description: Minimum inhibitory concentration, broth microdilution. It counts as cell-based. To be noted: Mycobacterium marinum, 7H9 broth, 28 °C. (Broth dilution looks for growth in wells or tubes with falling amounts of substance.)

The compound `CO[C@H]1/C=C/O[C@@]2(C)Oc3c(C)c(O)c4c(O)c(c(/C=N/N5CCN(C)CC5)c(O)c4c3C2=O)NC(=O)/C(C)=C\C=C\[C@H](C)[C@H](O)[C@@H](C)[C@@H](O)[C@@H](C)[C@H](OC(C)=O)[C@@H]1C` [rifampicin] yielded an MIC of 2 µg/mL (≈ 2.43 µM).

On to `O=C(O)c1cn(C2CC2)c2cc(N3CCNCC3)c(F)cc2c1=O` [ciprofloxacin], for which the MIC turned out to be 8 µg/mL (≈ 24.1 µM).

The term MIC denotes the smallest concentration in the dilution series that meets the test's criterion for growth inhibition.
